Measured values published in patent US10457654B2 (GENENTECH, INC., priority 2017, dated 2019).
Counter-ions that a name gives are not always drawn.

Key:
[1] = target: T1, hNav1.7 (Homo sapiens (Human), UniProt Q15858); experiment: Patch voltage clamp electrophysiology assay (EP), Syncropatch 384PE, CHO cells expressing Nav1.7; assay type: cell-based; details: holding potential -50 mV; […] compound incubation; read-out: EP_SP hNav1.7 (Ex. 243B) IC50
Method: Electrophysiological Assay (EP) (In Vitro Assay)
The following voltage clamp electrophysiology studies were performed on representative compounds using cells heterologously expressing Nav1.7 or Nav1.5 channels. cDNAs for Nav1.7 (NM_002977) and Nav1.5 (AC137587) were stably expressed in Chinese Hamstr Ovary (CHO) cells and CHL (Chinese Hamster Lung) cells respectively. […] Internal solution consists of (in mM): 110 […], 10 […], 20 EGTA, and 10 Hepes (pH adjusted to 7.2); and external solution contains (in mM): 60 NMDG, 80 NaCl, 4 KCl, 1 MgCl2, 2 CaCl2, 2 D-Glucose monohydrate, 10 Hepes (pH adjusted to 7.4 with NaOH).
The chip is moved into the measuring head and the instrument primes the chip with external and internal solutions. […] cells are added to the chip from a cell hotel, and a negative pressure of −50 mBar is applied to form a seal. Following treatment with seal enhancer solution and wash-off with external solution, negative pressure of −250 mbar is applied for 1 second to achieve the whole-cell configuration, followed by three washing steps in external solution. 20 μl of compounds is added to 40 μl in each well (1:3 dilution of compounds), and after mixing, 20 μl is removed so the volume is retained at 40 μl.
For voltage protocol, an holding potential of −50 mV is applied during the whole experiment. A depolarizing step is applied to −10 mV for 10 ms, followed by a hyperpolarization step to −150 mV for 20 ms to allow channel recovery from inactivation. A second depolarizing step is applied from −150 mV to −10 mV for 10 ms, where currents were measured to derive blocking effects of compounds. Inhibition is determined based on 7.5 min of compound incubation.
Target sequence in this assay (Q15858 other isoform, or with tags, fused parts or gaps): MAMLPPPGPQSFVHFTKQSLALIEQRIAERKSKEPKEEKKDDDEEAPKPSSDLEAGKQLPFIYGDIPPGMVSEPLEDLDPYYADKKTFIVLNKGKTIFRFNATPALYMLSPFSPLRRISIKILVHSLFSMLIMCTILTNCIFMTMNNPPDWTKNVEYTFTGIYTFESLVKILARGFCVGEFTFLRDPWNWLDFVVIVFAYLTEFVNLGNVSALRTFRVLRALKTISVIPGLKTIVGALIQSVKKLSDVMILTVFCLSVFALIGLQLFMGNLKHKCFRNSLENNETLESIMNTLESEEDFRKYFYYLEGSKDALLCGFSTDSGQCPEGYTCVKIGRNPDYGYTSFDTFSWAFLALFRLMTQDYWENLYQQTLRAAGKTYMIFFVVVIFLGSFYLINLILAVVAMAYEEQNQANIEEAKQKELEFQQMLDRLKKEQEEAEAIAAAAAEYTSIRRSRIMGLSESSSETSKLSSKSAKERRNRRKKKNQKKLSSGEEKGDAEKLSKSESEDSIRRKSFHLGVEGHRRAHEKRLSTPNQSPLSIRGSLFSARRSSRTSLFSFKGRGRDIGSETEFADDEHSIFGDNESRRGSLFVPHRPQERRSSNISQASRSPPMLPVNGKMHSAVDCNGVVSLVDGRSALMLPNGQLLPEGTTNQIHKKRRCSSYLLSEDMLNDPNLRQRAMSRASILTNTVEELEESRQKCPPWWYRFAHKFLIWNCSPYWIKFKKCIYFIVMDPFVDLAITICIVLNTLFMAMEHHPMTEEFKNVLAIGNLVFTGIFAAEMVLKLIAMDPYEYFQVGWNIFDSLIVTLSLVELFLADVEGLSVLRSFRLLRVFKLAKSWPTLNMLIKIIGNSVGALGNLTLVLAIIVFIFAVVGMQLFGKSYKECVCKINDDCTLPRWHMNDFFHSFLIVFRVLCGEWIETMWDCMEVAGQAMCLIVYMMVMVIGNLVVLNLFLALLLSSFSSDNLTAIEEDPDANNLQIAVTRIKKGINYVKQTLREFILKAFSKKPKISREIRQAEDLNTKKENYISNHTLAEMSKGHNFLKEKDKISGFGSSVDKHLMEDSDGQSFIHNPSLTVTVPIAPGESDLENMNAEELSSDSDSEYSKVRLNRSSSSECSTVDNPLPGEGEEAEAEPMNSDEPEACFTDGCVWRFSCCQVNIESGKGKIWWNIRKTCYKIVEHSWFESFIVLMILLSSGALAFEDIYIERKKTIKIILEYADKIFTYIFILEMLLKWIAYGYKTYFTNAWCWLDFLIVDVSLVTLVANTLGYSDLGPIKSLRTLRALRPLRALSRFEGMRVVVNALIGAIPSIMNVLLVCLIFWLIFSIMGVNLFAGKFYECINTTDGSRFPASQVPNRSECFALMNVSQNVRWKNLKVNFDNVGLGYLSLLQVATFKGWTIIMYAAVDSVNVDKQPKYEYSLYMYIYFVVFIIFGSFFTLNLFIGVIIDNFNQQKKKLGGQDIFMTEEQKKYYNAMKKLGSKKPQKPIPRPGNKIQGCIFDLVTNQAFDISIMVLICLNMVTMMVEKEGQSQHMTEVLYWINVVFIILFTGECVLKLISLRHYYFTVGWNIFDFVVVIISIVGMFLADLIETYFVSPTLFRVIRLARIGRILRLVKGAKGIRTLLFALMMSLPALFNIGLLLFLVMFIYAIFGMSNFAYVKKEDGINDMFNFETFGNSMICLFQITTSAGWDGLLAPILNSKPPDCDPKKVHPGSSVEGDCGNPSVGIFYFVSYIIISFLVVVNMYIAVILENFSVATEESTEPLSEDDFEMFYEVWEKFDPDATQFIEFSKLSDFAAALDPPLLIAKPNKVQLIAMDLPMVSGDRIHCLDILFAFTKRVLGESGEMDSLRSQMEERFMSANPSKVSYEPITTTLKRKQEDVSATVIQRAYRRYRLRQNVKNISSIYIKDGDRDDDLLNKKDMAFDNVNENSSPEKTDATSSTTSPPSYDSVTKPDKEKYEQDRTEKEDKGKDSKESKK

[2] = target: T1, hNav1.7; experiment: Tritiated compound binding to membranes from cells expressing hNav1.7 and the β1 subunit, modified protocol (LBA, Ex. 243B); details: 300 pM [3H]compound, room temperature, read-out: Nav1.7 LBA (Ex. 243B) IC50
Target sequence in this assay (Q15858 whole entry, looked up): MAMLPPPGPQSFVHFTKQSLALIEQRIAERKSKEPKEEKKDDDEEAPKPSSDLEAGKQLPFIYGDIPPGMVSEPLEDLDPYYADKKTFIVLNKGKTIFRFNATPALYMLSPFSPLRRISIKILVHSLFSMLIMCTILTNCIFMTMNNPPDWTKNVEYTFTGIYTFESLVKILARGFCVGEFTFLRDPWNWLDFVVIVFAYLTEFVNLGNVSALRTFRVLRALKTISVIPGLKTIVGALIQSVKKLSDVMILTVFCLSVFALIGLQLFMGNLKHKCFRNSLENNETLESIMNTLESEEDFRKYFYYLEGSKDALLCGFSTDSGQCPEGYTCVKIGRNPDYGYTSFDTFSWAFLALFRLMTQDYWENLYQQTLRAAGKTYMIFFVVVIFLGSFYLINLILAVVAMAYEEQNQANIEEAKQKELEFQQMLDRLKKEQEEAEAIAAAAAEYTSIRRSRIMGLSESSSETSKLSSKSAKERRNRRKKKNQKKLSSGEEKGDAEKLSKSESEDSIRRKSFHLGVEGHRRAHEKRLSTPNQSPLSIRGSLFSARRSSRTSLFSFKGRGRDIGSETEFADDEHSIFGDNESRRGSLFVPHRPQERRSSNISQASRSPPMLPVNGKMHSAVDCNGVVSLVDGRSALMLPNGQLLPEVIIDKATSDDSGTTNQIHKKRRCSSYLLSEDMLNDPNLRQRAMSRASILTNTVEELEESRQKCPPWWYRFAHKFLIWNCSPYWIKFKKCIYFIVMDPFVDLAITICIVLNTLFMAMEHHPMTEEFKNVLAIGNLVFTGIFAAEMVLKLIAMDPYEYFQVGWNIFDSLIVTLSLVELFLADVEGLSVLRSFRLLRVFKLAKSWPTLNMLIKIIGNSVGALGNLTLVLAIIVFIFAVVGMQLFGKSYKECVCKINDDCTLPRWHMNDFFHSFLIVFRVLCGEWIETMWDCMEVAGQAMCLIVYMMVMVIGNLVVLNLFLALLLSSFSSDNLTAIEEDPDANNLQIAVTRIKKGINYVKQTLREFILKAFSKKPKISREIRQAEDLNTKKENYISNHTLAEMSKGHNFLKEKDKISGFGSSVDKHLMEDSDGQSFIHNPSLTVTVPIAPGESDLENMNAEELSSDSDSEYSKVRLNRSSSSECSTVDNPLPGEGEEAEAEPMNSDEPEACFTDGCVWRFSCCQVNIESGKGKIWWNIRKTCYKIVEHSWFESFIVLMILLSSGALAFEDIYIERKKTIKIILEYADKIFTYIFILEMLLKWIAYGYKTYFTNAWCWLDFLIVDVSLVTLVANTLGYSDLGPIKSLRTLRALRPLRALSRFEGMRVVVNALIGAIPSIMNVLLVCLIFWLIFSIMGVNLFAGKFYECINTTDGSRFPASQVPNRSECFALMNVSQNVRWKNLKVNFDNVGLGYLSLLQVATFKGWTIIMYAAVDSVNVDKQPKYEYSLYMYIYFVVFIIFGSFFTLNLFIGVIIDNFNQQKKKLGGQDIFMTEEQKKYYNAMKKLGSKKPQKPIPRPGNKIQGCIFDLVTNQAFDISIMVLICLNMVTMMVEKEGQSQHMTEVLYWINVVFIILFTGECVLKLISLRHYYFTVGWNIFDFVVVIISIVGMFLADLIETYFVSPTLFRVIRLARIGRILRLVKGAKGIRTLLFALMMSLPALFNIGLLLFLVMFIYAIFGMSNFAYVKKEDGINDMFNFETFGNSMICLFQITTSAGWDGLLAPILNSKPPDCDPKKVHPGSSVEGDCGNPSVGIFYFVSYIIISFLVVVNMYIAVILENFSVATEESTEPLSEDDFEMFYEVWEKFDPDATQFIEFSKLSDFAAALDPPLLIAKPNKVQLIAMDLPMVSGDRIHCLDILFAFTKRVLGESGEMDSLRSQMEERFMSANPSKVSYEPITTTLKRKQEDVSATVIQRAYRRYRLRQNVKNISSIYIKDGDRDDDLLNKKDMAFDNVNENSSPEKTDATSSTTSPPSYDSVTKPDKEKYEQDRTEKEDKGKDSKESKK
Target sequence in this assay (Q07699 whole entry partner, looked up): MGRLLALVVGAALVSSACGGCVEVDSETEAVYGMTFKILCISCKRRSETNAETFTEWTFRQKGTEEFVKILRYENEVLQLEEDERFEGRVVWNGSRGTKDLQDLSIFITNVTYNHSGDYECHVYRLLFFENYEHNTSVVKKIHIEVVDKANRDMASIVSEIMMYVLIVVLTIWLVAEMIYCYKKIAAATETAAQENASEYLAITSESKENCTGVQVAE

## CN(C)[C@H]1CC2C(C[C@@H]1Nc1cc(F)c(S(=O)(=O)Nc3nccs3)cc1Cl)C2(F)F (stereo in doubt) [Example 209, 5-Chloro-4-(((1R,3S,4S,6S)-4-(dimethylamino)-7,7-difluorobicyclo[4.1.0]heptan-3-yl)amino)-2-fluoro-N-(thiazol-2-yl)benzenesulfonamide]
[1]
  IC50: 9.25 nM
[2]
  IC50: 160 nM

## CN(C)[C@H]1CCCCC[C@@H]1Nc1cc(F)c(S(=O)(=O)Nc2nccs2)cc1Cl [Example 144, 5-chloro-4-(((1S,2S)-2-(dimethylamino)cycloheptyl)amino)-2-fluoro-N-(thiazol-2-yl)benzenesulfonamide formate]
[1]
  IC50: 25.8 nM
[2]
  IC50: 374 nM

## CN(C)[C@H]1C[C@@H](F)CC[C@@H]1Nc1cc(F)c(S(=O)(=O)Nc2nccs2)cc1Cl [Example 192, 5-chloro-4-(((1S,2S,4S)-2-(dimethylamino)-4-fluorocyclohexyl)amino)-2-fluoro-N-(thiazol-2-yl)benzenesulfonamide]
[1]
  IC50: 25.5 nM
[2]
  IC50: 324 nM

## CCCc1cccc([C@H]2CC[C@H](Nc3cc(F)c(S(=O)(=O)Nc4ccncn4)cc3Cl)[C@@H](N(C)C)C2)c1 [Example 223, 5-Chloro-4-(((1S,2S,4S)-2-(dimethylamino)-4-(3-propylphenyl)cyclohexyl)amino)-2-fluoro-N-(pyrimidin-4-yl)benzenesulfonamide]
[1]
  IC50: 1.45 nM
[2]
  IC50: 9.73 nM

## CN(C1CNC1)[C@H]1C[C@@H](C(F)(F)F)CC[C@@H]1Nc1cc(F)c(S(=O)(=O)Nc2cccc(F)n2)cc1Cl [Example 170, 4-(((1S,2S,4S)-2-(azetidin-3-yl(methyl)amino)-4-(trifluoromethyl)cyclohexyl)amino)-5-chloro-2-fluoro-N-(6-fluoropyridin-2-yl)benzenesulfonamide]
[1]
  IC50: 3.68 nM
[2]
  IC50: 2.92 nM

## CN(C)[C@H]1C[C@@H](c2ccc(C(F)(F)F)cc2)CC[C@@H]1Nc1cc(F)c(S(=O)(=O)Nc2ccncn2)cc1Cl [Example 224, 5-Chloro-4-(((1S,2S,4S)-2-(dimethylamino)-4-(4-(trifluoromethyl)phenyl)cyclohexyl)amino)-2-fluoro-N-(pyrimidin-4-yl)benzenesulfonamide]
[1]
  IC50: 2.36 nM
[2]
  IC50: 8.33 nM

## CN(C1CN(C(=O)C2CC2)C1)[C@H]1CCCC[C@@H]1Nc1cc(F)c(S(=O)(=O)Nc2nccs2)cc1Cl [Example 155, 5-Chloro-4-(((1S,2S)-2-((1-(cyclopropanecarbonyl)azetidin-3-yl)(methyl)amino)-cyclohexyl)amino)-2-fluoro-N-(thiazol-2-yl)benzenesulfonamide]
[1]
  IC50: 12.3 nM
[2]
  IC50: 130 nM

## CN(C)[C@H]1CCC(c2cccc(C(F)(F)F)c2)C[C@@H]1Nc1cc(F)c(S(=O)(=O)Nc2ccncn2)cc1Cl (stereo in doubt) [Example 121, 5-chloro-4-(((1S,2S,5S)-2-(dimethylamino)-5-(3-(trifluoromethyl)phenyl)cyclohexyl)amino)-2-fluoro-N-(pyrimidin-4-yl)benzenesulfonamide]
[1]
  IC50: 121 nM
[2]
  IC50: 1170 nM

## CN(C)[C@H]1C[C@@H](c2cccc(C(F)(F)F)c2)CC[C@@H]1Nc1cc(F)c(S(=O)(=O)Nc2ccncn2)cc1O [Example 240, 4-(((1S,2S,4S)-2-(Dimethylamino)-4-(3-(trifluoromethyl)phenyl)cyclohexyl)amino)-2-fluoro-5-hydroxy-N-(pyrimidin-4-yl)benzenesulfonamide formate]
[1]
  IC50: 2.9 nM
[2]
  IC50: 15 nM

## CN(C)[C@H]1C[C@H](c2cccc(C(F)(F)F)c2)CC[C@@H]1Nc1cc(F)c(S(=O)(=O)Nc2ccon2)cc1Cl [Example 229, 5-chloro-4-(((1S,2S,4R)-2-(dimethylamino)-4-(3-(trifluoromethyl)phenyl)cyclohexyl)amino)-2-fluoro-N-(isoxazol-3-yl)benzenesulfonamide]
[1]
  IC50: 8.38 nM
[2]
  IC50: 55 nM

## CN1CC[C@H]1C(=O)N(C)[C@H]1CCCC[C@@H]1Nc1cc(F)c(S(=O)(=O)Nc2nccs2)cc1Cl [Example 202, (S)—N-((1S,2S)-2-((2-chloro-5-fluoro-4-(N-(thiazol-2-yl)sulfamoyl)phenyl)amino)cyclohexyl)-N,1-dimethylazetidine-2-carboxamide]
[1]
  IC50: 34.4 nM
[2]
  IC50: 245 nM

## CN(C)[C@H]1C[C@H](c2cccc(C(F)(F)F)c2)CC[C@@H]1Nc1cc(F)c(S(=O)(=O)Nc2ccncn2)cc1Cl [Example 218, 5-chloro-4-(((1S,2S,4R)-2-(dimethylamino)-4-(3-(trifluoromethyl)phenyl)-cyclohexyl)amino)-2-fluoro-N-(pyrimidin-4-yl)benzenesulfonamide]
[1]
  IC50: 1.6 nM
[2]
  IC50: 20.9 nM

## O=S(=O)(Nc1nccs1)c1cc(Cl)c(N[C@H]2CCCC[C@@H]2N2CCC[C@](F)(CO)C2)cc1F [Example 212, 5-Chloro-2-fluoro-4-(((1S,2S)-2-((R)-3-fluoro-3-(hydroxymethyl)piperidin-1-yl)cyclohexyl)amino)-N-(thiazol-2-yl)benzenesulfonamide]
[1]
  IC50: 6.59 nM
[2]
  IC50: 110 nM

## CC1(O)CCN([C@H]2CCCC[C@@H]2Nc2cc(F)c(S(=O)(=O)Nc3nccs3)cc2Cl)CC1 [Example 150, 5-chloro-2-fluoro-4-(((1S,2S)-2-(4-hydroxy-4-methylpiperidin-1-yl)cyclohexyl)amino)-N-(thiazol-2-yl)benzenesulfonamide formate]
[1]
  IC50: 103 nM
[2]
  IC50: 1410 nM

## O=S(=O)(Nc1ccncn1)c1cc(Cl)c(N[C@H]2CCCC[C@@H]2N2CCCCC2)cc1F [Example 108, 5-chloro-2-fluoro-4-(((1S,2S)-2-(piperidin-1-yl)cyclohexyl)amino)-N-(pyrimidin-4-yl)benzenesulfonamide]
[1]
  IC50: 22.6 nM
[2]
  IC50: 166 nM

## O=S(=O)(Nc1nccs1)c1cc(Cl)c(N[C@H]2CCCC[C@@H]2N2CCC[C@@H](CO)C2)cc1F [Example 169, 5-chloro-2-fluoro-4-(((1S,2S)-2-((R)-3-(hydroxymethyl)piperidin-1-yl)cyclohexyl)amino)-N-(thiazol-2-yl)benzenesulfonamide formate]
[1]
  IC50: 3.34 nM
[2]
  IC50: 7.56 nM

## COc1cc(S(=O)(=O)Nc2ccncn2)c(F)cc1N[C@H]1CC[C@H](c2cccc(C(F)(F)F)c2)C[C@@H]1N(C)C [Example 241, 4-(((1S,2S,4S)-2-(Dimethylamino)-4-(3-(trifluoromethyl)phenyl)cyclohexyl)amino)-2-fluoro-5-methoxy-N-(pyrimidin-4-yl)benzenesulfonamide formate]
[1]
  IC50: 1.48 nM
[2]
  IC50: 3.73 nM

## O=S(=O)(Nc1ccncn1)c1cc(Cl)c(N[C@H]2CCCC[C@@H]2N2CCC[C@@](F)(CO)C2)cc1F [Example 222, 5-Chloro-2-fluoro-4-(((1S,2S)-2-((S)-3-fluoro-3-(hydroxymethyl)piperidin-1-yl)cyclohexyl)amino)-N-(pyrimidin-4-yl)benzenesulfonamide]
[1]
  IC50: 124 nM
[2]
  IC50: 464 nM

## CN(C)[C@H]1C[C@@H](c2cccc(C(F)(F)F)c2)CC[C@@H]1Nc1cc(F)c(S(=O)(=O)Nc2ccncn2)cc1F [Example 220, 4-(((1S,2S,4S)-2-(Dimethylamino)-4-(3-(trifluoromethyl)phenyl)cyclohexyl)amino)-2,5-difluoro-N-(pyrimidin-4-yl)benzenesulfonamide]
[1]
  IC50: 0.418 nM
